Experimental data from US20100016285A1, “HETEROCYCLIDENE-N-(ARYL) ACETAMIDE DERIVATIVE” (MOCHIDA PHARMACEUTICAL CO., LTD., priority 2007, published 2010).

Assays:
[1] = Effects on rectal temperature (8-1), oral administration to rats; format: in vivo, rat; settings: oral single doses of 3, 10 and 30 mg/kg; 30, 60 and 120 minutes; maximum absolute difference vs vehicle
Protocol: (8-1) Effects on Rectal Temperature
A test compound was orally administered to rats at single doses of 3, 10 and 30 mg/kg. Then rectal temperature was measured 30, 60 and 120 minutes after administration.
Differences of the mean value between a group treated with test substance and a vehicle-treated group were calculated at all measuring points and, based on the maximum absolute value of differences, changes in rectal temperature were divided into the following three categories:
−: the maximum value was less than 0.5 degree Celsius +: the maximum value was more than 0.5 degree but less than 1.0 degree Celsius ++: the maximum value was more than 1.0 degree Celsius

[2] = target: T1, human TRPV1 (Homo sapiens, UniProt Q8NER1); test: Capsaicin-induced Ca influx in transformed CHO cells, FDSS-6000 (b-1), A2 value; format: cell-based; settings: concentration shifting the capsaicin concentration-reaction curve two times rightward; CHO cells expressing TRPV1
T1 construct: expressed in transfected cells; host or cells: CHO-K1 cells, pCAGGS vector, clones selected by limiting dilution
Text: (1) Measurement of Capsaicin-Induced Ca Influx in a Transformed CHO Cell Line Expressing Human TRPV1
(a) Establishment of a Transformed CHO Cell Line Expressing Human and Rat TRPV1
Human and rat vanilloid receptor 1 (hTRPV1 and rTRPV1) cDNA was cloned from human brain and rat dorsal root ganglion, respectively. The cloned TRPV1 cDNA was incorporated in a pCAGGS vector. The vector was introduced to a CHO-K1 cell line, thus performing transformation. Clones obtained by limiting dilution were stimulated with capsaicin. Clones with a high responsiveness were selected using an increase in the Ca concentration as an indicator. The selected clones were used for the following experiment.
(b-1) Measurement of Ca Influx using FDSS-6000
The transformed CHO cells expressing human or rat TRPV1 were seeded in a 96-well plate (with black walls and transparent bottoms, manufactured by Greiner) at a density of 40,000 cells per well. The cells were cultured at 37° C. in 5% CO2 atmosphere for one night. A loading solution of FLIPR Calcium 3 assay kit (manufactured by Molecular Devices Corporation) containing 2.5 mmol/L of probenecid was then added to each of the wells in the same amount as the culture medium, and the cells were cultured at 37° C. for 60 minutes. For three minutes after the cells were stimulated with capsaicin (1 nmol/L to 1 μmol/L), the change of the intracellular Ca concentration was measured using FDSS-6000 (λex: 480 nm, λem: […], manufactured by Hamamatsu Photonics K.K.). The integrated values of the increase rate of the intracellular Ca concentration were calculated for a group treated with the compounds of the present invention and a group treated with a vehicle, thus allowing capsaicin concentration-reaction curves to be obtained. A concentration (A2 value) of each of the compounds of the present invention, at which the capsaicin concentration-reaction curve obtained when the cells were treated with the vehicle was shifted two times rightward, was calculated. The inhibitory effects of the test compounds were compared using this value as an indicator.

T1 sequence (Q8NER1 whole entry): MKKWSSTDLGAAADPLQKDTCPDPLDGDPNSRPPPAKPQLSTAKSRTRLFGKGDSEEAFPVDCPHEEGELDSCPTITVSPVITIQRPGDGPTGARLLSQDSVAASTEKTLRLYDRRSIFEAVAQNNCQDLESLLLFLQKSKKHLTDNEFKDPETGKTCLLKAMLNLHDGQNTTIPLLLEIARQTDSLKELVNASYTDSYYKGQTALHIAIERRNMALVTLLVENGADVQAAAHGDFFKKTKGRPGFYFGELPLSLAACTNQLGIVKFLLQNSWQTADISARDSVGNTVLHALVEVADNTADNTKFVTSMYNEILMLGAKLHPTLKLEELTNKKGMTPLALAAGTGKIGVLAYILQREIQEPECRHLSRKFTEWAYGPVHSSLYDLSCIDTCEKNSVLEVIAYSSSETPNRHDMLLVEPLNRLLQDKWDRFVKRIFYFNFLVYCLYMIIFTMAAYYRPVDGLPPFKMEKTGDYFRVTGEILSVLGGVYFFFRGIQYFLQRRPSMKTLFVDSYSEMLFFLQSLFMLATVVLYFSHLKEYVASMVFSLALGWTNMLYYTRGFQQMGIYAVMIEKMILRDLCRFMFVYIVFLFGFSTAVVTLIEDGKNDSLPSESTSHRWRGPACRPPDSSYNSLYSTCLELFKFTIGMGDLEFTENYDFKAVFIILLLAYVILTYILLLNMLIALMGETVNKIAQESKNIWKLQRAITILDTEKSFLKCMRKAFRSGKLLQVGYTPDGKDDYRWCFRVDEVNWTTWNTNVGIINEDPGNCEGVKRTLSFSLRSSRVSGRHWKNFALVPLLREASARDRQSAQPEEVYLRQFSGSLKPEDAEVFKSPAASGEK

| Compound | A2 value [2] | Change in rectal temperature in rats [1] |
| --- | --- | --- |
| CC1(C)C/C(=C\C(=O)Nc2ccc3c(c2)NC(=O)C(N2CCOCC2)C3)c2ccc(C(F)(F)F)cc2O1 (single isomer, unassigned) [Example 213, (E)-2-(7-trifluoromethyl-2,2-dimethylchroman-4-ylidene)-N-(3-(4-morpholinyl)-3,4-dihydro-2(1H)-quinolinon-7-yl)acetamide] | – | − (the maximum value was less than 0.5 degree Celsius) |
| CN1Cc2ccc(NC(=O)/C=C3\CCCOc4cc(C(F)(F)F)ccc43)cc2NC1=O [EXAMPLE 14, (E)-2-(8-trifluoromethyl-3,4-dihydrobenzo[b]oxepin-5(2H)-ylidene)-N-(3-methyl-3,4-dihydro-2(1H)-quinazolinon-7-yl)acetamide] | – | − (the maximum value was less than 0.5 degree Celsius) |
| O=C(/C=C1\CCCOc2cc(C(F)(F)F)ccc21)Nc1ccc2c(c1)NC(=O)C(N1CCOCC1)C2 (stereo not shown) [EXAMPLE 30, (E)-2-(8-trifluoromethyl-3,4-dihydrobenzo[b]oxepin-5(2H)-ylidene)-N-(3-(4-morpholinyl)-3,4-dihydro-2(1H)-quinolinon-7-yl)acetamide] | – | − (the maximum value was less than 0.5 degree Celsius) |
| O=C(/C=C1\CCCOc2cc(C(F)(F)F)ccc21)Nc1ccc2c(c1)NC(=O)C(N1CCNCC1)C2 (stereo not shown) [EXAMPLE 52, (E)-2-(8-trifluoromethyl-3,4-dihydrobenzo[b]oxepin-5(2H)-ylidene)-N-(3-(1-piperazinyl)-3,4-dihydro-2(1H)-quinolinon-7-yl)acetamide] | B (A2 value of 100 nM or more) | – |
| O=C(/C=C1\CCCOc2cc(C(F)(F)F)ccc21)Nc1ccc2c(c1)NC(=O)C(N1CCCOCC1)C2 (stereo not shown) [EXAMPLE 53, (E)-2-(8-trifluoromethyl-3,4-dihydrobenzo[b]oxepin-5(2H)-ylidene)-N-(3-([1,4]oxazepan-4-yl)-3,4-dihydro-2(1H)-quinolinon-7-yl)acetamide] | A (A2 value of less than 100 nM) | – |
| O=C(/C=C1\CCCOc2cc(C(F)(F)F)ccc21)Nc1ccc2c(c1)NC(=O)C(N1CCSCC1)C2 (stereo not shown) [EXAMPLE 54, (E)-2-(B-trifluoromethyl-3,4-dihydrobenzo[b]oxepin-5(2H)-ylidene)-N-(3-(4-thiomorpholinyl)-3,4-dihydro-2(1H)-quinolinon-7-yl)acetamide] | A (A2 value of less than 100 nM) | – |
| COC1CCN(C2Cc3ccc(NC(=O)/C=C4\CCCOc5cc(C(F)(F)F)ccc54)cc3NC2=O)CC1 (stereo not shown) [EXAMPLE 55, (E)-2-(8-trifluoromethyl-3,4-dihydrobenzo[b]oxepin-5(2H)-ylidene)-N-(3-(4-methoxy-1-piperidinyl)-3,4-dihydro-2(1H)-quinolinon-7-yl)acetamide] | A (A2 value of less than 100 nM) | – |
| CO[C@@H]1CCN(C2Cc3ccc(NC(=O)/C=C4\CCCOc5cc(C(F)(F)F)ccc54)cc3NC2=O)C1 (stereo partly drawn) [EXAMPLE 56, (E)-2-(8-trifluoromethyl-3,4-dihydrobenzo[b]oxepin-5(2H)-ylidene)-N-(3-((3S)-methoxypyrrolidin-1-yl)-3,4-dihydro-2(1H)-quinolinon-7-yl)acetamide] | A (A2 value of less than 100 nM) | – |
| CN(C1CCOCC1)C1Cc2ccc(NC(=O)/C=C3\CCCOc4cc(C(F)(F)F)ccc43)cc2NC1=O (stereo not shown) [EXAMPLE 57, (E)-2-(8-trifluoromethyl-3,4-dihydrobenzo[b]oxepin-5(2H)-ylidene)-N-(3-(N-methyl-N-(4-tetrahydropyranyl)amino)-3,4-dihydro-2(1H)-quinolinon-7-yl)acetamide] | B (A2 value of 100 nM or more) | – |
| O=C(/C=C1\CCCOc2cc(C(F)(F)F)ccc21)Nc1ccc2cc(N3CCOCC3)c(=O)[nH]c2c1 [Example 58, (E)-2-(8-trifluoromethyl-3,4-dihydrobenzo[b]oxepin-5(2H)-ylidene)-N-(3-(4-morpholinyl)-2(1H)-quinolinon-7-yl)acetamide] | A (A2 value of less than 100 nM) | – |
| O=C(/C=C1\CCCOc2cc(C(F)(F)F)ccc21)Nc1ccc2cc(CO)c(=O)[nH]c2c1 [Example 93, (E)-2-(8-trifluoromethyl-3,4-dihydrobenzo[b]oxepin-5(2H)-ylidene)-N-(3-hydroxymethyl-2(1H)-quinolinon-7-yl)acetamide] | – | − (the maximum value was less than 0.5 degree Celsius) |
| CC1(C)C/C(=C\C(=O)Nc2ccc3c(c2)NC(=O)C3(C)C)c2ccc(C(F)(F)F)cc2O1 [Example 109, (E)-2-(7-trifluoromethyl-2,2-dimethylchroman-4-ylidene)-N-(3,3-dimethyl-2(1H)-indolinon-6-yl)acetamide] | – | − (the maximum value was less than 0.5 degree Celsius) |
| CC1(C)C(=O)Nc2cc(NC(=O)/C=C3\CC4(CCC4)Oc4cc(C(F)(F)F)ccc43)ccc21 [Example 110, (E)-2-(7-trifluoromethyl-spiro[chroman-2,1′-cyclobutane]-4-ylidene)-N-(3,3-dimethyl-2(1H)-indolinon-6-yl)acetamide] | – | − (the maximum value was less than 0.5 degree Celsius) |

The next lines start with results.

| A2 value [2] | Compound | Change in rectal temperature in rats [1] |
| --- | --- | --- |
| A (A2 value of less than 100 nM) | O=C(/C=C1\CCCOc2cc(C(F)(F)F)ccc21)Nc1ccc2c(c1)NC(=O)C(N1CC[C@@H](O)C1)C2 (stereo partly drawn) [EXAMPLE 48, (E)-2-(8-trifluoromethyl-3,4-dihydrobenzo[b]oxepin-5(2H)-ylidene)-N-(3-((3S)-hydroxypyrrolidin-1-yl)-3,4-dihydro-2(1H)-quinolinon-7-yl)acetamide] | – |
| A (A2 value of less than 100 nM) | CC1(C)Oc2ccc(NC(=O)/C=C3\CCCOc4cc(C(F)(F)F)ccc43)cc2NC1=O [Example 1, (E)-2-(8-trifluoromethyl-3,4-dihydrobenzo[b]oxepin-5(2H)-ylidene)-N-(2,2-dimethyl-4H-benzo[1,4]oxazin-3-on-6-yl)acetamide] | – |
| A (A2 value of less than 100 nM) | CC1Oc2ccc(NC(=O)/C=C3\CCCOc4cc(C(F)(F)F)ccc43)cc2NC1=O (stereo not shown) [Example 2, (E)-2-(8-trifluoromethyl-3,4-dihydrobenzo[b]oxepin-5(2H)-ylidene)-N-(2-methyl-4H-benzo[1,4]oxazin-3-on-6-yl)acetamide] | – |
| A (A2 value of less than 100 nM) | O=C(/C=C1\CCCOc2cc(C(F)(F)F)ccc21)Nc1ccc2c(c1)NC(=O)C(CCO)O2 (stereo not shown) [Example 3, (E)-2-(8-trifluoromethyl-3,4-dihydrobenzo[b]oxepin-5(2H)-ylidene)-N-(2-(2-hydroxyethyl)-4H-benzo[1,4]oxazin-3-on-6-yl)acetamide] | – |
| A (A2 value of less than 100 nM) | O=C(/C=C1\CCCOc2cc(C(F)(F)F)ccc21)Nc1ccc2c(c1)NC(=O)CS2 [Example 4, (E)-2-(8-trifluoromethyl-3,4-dihydrobenzo[b]oxepin-5(2H)-ylidene)-N-(2H-benzo[1,4]thiazin-3(4H)-on-6-yl)acetamide] | – |
| B (A2 value of 100 nM or more) | O=C(/C=C1\CCCOc2cc(C(F)(F)F)ccc21)Nc1ccc2c(c1)NC(=O)C[S+]2[O-] (stereo not shown) [Example 5, (E)-2-(B-trifluoromethyl-3,4-dihydrobenzo[b]oxepin-5(2H)-ylidene)-N-(1-oxo-2H-benzo[1,4]thiazin-3(4H)-on-6-yl)acetamide] | – |
| A (A2 value of less than 100 nM) | O=C(/C=C1\CCCOc2cc(C(F)(F)F)ccc21)Nc1ccc2c(c1)NC(=O)CN2 [Example 7, (E)-2-(8-trifluoromethyl-3,4-dihydrobenzo[b]oxepin-5(2H)-ylidene)-N-(3,4-dihydro-2(1H)-quinoxalinon-7-yl)acetamide] | – |
| A (A2 value of less than 100 nM) | O=C(/C=C1\CCCOc2cc(C(F)(F)F)ccc21)Nc1ccc2c(c1)NS(=O)(=O)CC2 [Example 59, (E)-2-(8-trifluoromethyl-3,4-dihydrobenzo[b]oxepin-5(2H)-ylidene)-N-(2,2-dioxo-3,4-dihydro-(1H)-2,1-benzothiazin-7-yl)acetamide] | – |
| A (A2 value of less than 100 nM) | O=C(/C=C1\CCCOc2cc(C(F)(F)F)ccc21)Nc1cccc2c1CCC(=O)N2 [compound 18, (E)-2-(8-trifluoromethyl-3,4-dihydrobenzo[b]oxepin-5(2H)-ylidene)-N-(3,4-dihydro-2(1H)-quinolinon-5-yl)acetamide] | – |
